Results on twelve compounds are retold here after US20170362228A1, “TETRAHYDRO-PYRIDO[3,4-b]INDOLE ESTROGEN RECEPTOR MODULATORS AND USES THEREOF” (Genentech, Inc., priority 2016, published 2017).

Like-named read-outs stand apart in the source and are kept apart here.

The target in assay [1] is T1, estrogen receptor alpha (ESR1) (Homo sapiens, UniProt P03372).
T1 construct: endogenous in cells; host or cells: MCF7 breast cancer cells
T1 sequence (P03372 1-595): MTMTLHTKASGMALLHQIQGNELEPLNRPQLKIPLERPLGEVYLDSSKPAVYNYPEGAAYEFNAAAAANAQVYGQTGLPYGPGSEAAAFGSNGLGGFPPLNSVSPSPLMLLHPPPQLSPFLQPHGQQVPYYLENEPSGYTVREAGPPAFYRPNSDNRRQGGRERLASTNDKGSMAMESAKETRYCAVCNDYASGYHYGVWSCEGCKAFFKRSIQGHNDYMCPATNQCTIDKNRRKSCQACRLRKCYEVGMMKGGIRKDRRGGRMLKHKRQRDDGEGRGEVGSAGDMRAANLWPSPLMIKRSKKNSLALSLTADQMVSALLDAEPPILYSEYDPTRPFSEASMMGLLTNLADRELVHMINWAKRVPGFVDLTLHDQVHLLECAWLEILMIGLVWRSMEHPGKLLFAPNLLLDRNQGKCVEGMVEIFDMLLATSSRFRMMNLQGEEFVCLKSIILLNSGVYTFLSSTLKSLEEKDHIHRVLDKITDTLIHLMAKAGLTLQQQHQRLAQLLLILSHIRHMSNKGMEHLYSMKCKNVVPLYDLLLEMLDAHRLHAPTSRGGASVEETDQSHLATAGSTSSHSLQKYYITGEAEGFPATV
The assay is described as follows: Breast Cancer Cell ERa High Content Fluorescence Imaging Degradation Assay (Example 901). It counts as cell-based. To be noted: MCF7 breast cancer cells, 4 hours, plateau of the maximal effect. The protocol:
MCF7 breast cancer cells were seeded on day 1 at a density of 10,000 cells per well in 384 well poly-lysine coated tissue culture plate (Greiner # T-3101-4), in 50 μL/well RPMI (phenol red free), 10% FBS (Charcoal stripped), containing L-glutamine. On day 2, compounds were prepared at 2 compound source concentrations: 100 μM and 1 μM (ultimately to give 2 overlapping titration curves), in a Labcyte low dead volume plate, 10 μL/well, and 10 μL of DMSO in designated wells for backfill, and 5 μM Fulvestrant (control compound) in designated wells. Compounds and controls were dispensed using a Labcyte Echo acoustic dispenser to dispense compounds with a predefined serial dilution (1.8×, 10 point, in duplicate) and appropriate backfill and control compounds (final total volume transferred was 417.5 nL and compound dispense volume ranges from 2.5 nL to 417.5 nL; 0.84% DMSO (v/v) final), ultimately producing a concentration range from 0.05 nM to 835 nM. Cell plates were incubated at 37° C., for 4 hours. Fixation and permeabilization were carried out using a Biotek EL406 plate washer and dispenser as follows. Cells were fixed by addition of 15 μL of 16% paraformaldehyde (Electron Microscopy Sciences #15710-S) directly to the 50 μL cell culture medium in each well using the peristaltic pump 5 μL cassette on a Biotek EL406 (final concentration of formaldehyde was 3.7% w/v). Samples were incubated 30 minutes. Well contents was aspirated and 50 μL/well of Phosphate Buffered Saline (PBS) containing 0.5% w/v bovine serum albumen, 0.5% v/v Triton X-100 (Antibody Dilution Buffer) was added to each well. Samples were incubated for 30 minutes. Well contents were aspirated and washed 3 times with 100 μL/well of PBS. Immunofluorescence staining of estrogen receptor alpha (ESR1) was carried out using a Biotek EL406 plate washer and dispenser as follows. The well supernatant was aspirated from the wells and 25 μL/well of anti-ESR1 mAb (F10) (Santa Cruz sc-8002) diluted 1:1000 in Antibody Dilution Buffer was dispensed. Samples were incubated for 2 hours at room temperature. Samples were washed 4 times with 100 μL/well of PBS. 25 uL/well of secondary antibody solution (Alexafluor 488 conjugate anti-mouse IgG (LifeTechnologies #A21202) diluted 1:1000 and Hoechst 33342 1 μg/ml diluted in Antibody Dilution Buffer) were dispensed into each well. Samples were incubated for 2 hours at room temperature. Samples were washed 3 times with 100 μL/well of PBS using a Biotek EL406. Quantitative fluorescence imaging of ESR1 was carried out using a Cellomics Arrayscan V (Thermo). Fluorescence images of the samples (Channel 1: XF53 Hoechst (DNA stain); Channel 2: XF53 FITC (ESR1 stain)) were acquired using a Cellomics VTI Arrayscan using the Bioapplication “Compartmental Analysis” using the auto-exposure (based on DMSO control wells) setting “peak target percentile” set to 25% target saturation for both channels. Channel 1 (DNA stain) was used to define the nuclear region (Circ). Measurements of “Mean_CircAvgIntCh2”, which is the Alexafluor 488 fluorescence intensity (ESR1) within the nuclear region, was measured on a per cell basis and averaged over all the measured cells. Data analysis was carried out using Genedata Screener Software, with DMSO and 5 nM Fulvestrant treated samples being used to define the 0% and 100% changes in ESR1. The “Robust Fit” method was used to define the inflexion point of curve (EC50) and the plateau of the maximal effect (Sinf). Degradation data for exemplary Formula I compounds is reported as ER-alpha MCF7 HCS Sinf(%) values in Table 1.

The test system of the next assay is MCF7 cells. Kind of assay: In vitro cell proliferation assays (Examples 902 and 903), MCF7. The format is cell-based. Particulars: read-out: ER-alpha MCF7 HCS (EC50). The protocol:
Efficacy of estrogen receptor modulator compounds and chemotherapeutic compounds are measured by a cell proliferation assay employing the following protocol (Mendoza et al (2002) Cancer Res. 62:5485-5488).
The CellTiter-Glo® Luminescent Cell Viability Assay is a homogeneous method to determine the number of viable cells in culture based on quantitation of the ATP present, which signals the presence of metabolically active cells. The CellTiter-Glo® Assay is designed for use with multiwell plate formats, making it ideal for automated high-throughput screening (HTS), cell proliferation and cytotoxicity assays. The homogeneous assay procedure involves adding a single reagent (CellTiter-Glo® Reagent) directly to cells cultured in serum-supplemented medium. Cell washing, removal of medium or multiple pipetting steps are not required. The Cell Titer-Glo® Luminescent Cell Viability Assay, including reagents and protocol are commercially available (Promega Corp., Madison, Wis., Technical Bulletin TB288).
The assay assesses the ability of compounds to enter cells and inhibit cell proliferation. The assay principle is based on the determination of the number of viable cells present by quantitating the ATP present in a homogenous assay where addition of the Cell TiterGlo® reagent results in cell lysis and generation of a luminescent signal through the luciferase reaction. The luminescent signal is proportional to the amount of ATP present.
Procedure: Day 1—Seed Cell Plates (384-well black, clear bottom, microclear, TC plates with lid from Falcon #353962), Harvest cells, Seed cells at 1000 cells per 54 μl per well into 384 well Cell Plates for 3 days assay. Cell Culture Medium: RPMI or DMEM high glucose, 10% Fetal Bovine Serum, 2 mM L-Glutamine, P/S. Incubate 0/N (overnight) at 37° C., 5% CO2.
Day 2—Add Drug to Cells, Compound Dilution, DMSO Plates (serial 1:2 for 9 points). Add 20 μl of compound at 10 mM in the 2nd column of 96 well plate. Perform serial 1:2 across the plate (10 μl+20 μl 100% DMSO) for a total of 9 points using Precision Media Plates 96-well conical bottom polypropylene plates from Nunc (cat.#249946) (1:50 dilution). Add 147 μl of Media into all wells. Transfer 3 μl of DMSO+compound from each well in the DMSO Plate to each corresponding well on Media Plate using Rapidplate® (Caliper, a Perkin-Elmer Co.). For 2 drug combination studies, transfer one drug 1.5 μl of DMSO+compound from each well in the DMSO Plate to each corresponding well on Media Plate using Rapidplate. Then, transfer another drug 1.5 μl to the medium plate.
Drug Addition to Cells, Cell Plate (1:10 dilution): Add 6 μl of media+compound directly to cells (54 μl of media on the cells already). Incubate 3 days at 37° C., 5% CO2 in an incubator that will not be opened often.
Day 5—Develop Plates, Thaw Cell Titer Glo Buffer at room temperature: Remove Cell Plates from 37° C. and equilibrate to room temperature for about 30 minutes. Add Cell Titer-Glo® Buffer to Cell Titer-Glo® Substrate (bottle to bottle). Add 30 μl Cell Titer-Glo® Reagent (Promega cat.# G7572) to each well of cells. Place on plate shaker for about 30 minutes. Read luminescence on Analyst HT Plate Reader (half second per well).
Cell viability assays and combination assays: Cells were seeded at 1000-2000 cells/well in 384-well plates for 16 h. On day two, nine serial 1:2 compound dilutions were made in DMSO in a 96 well plate. The compounds were further diluted into growth media using a Rapidplate® robot (Zymark Corp., Hopkinton, Mass.). The diluted compounds were then added to quadruplicate wells in 384-well cell plates and incubated at 37° C. and 5% CO2. After 4 days, relative numbers of viable cells were measured by luminescence using Cell Titer-Glo® (Promega) according to the manufacturer's instructions and read on a Wallac Multilabel Reader® (PerkinElmer, Foster City). EC50 values were calculated using Prism® 4.0 software (GraphPad, San Diego). […]

Where [2] appears, read: Table 1a, DMSO and Fulvestrant define 0% and 100% changes in ESR1.

Broadly, the EC50 is the concentration that produces a half-maximal response.

For `C[C@H]1Cc2c([nH]c3c(F)cccc23)[C@H](c2c(F)cc([C@@H](O)C3CN(CCCF)C3)cc2F)N1CC(F)(F)CO` (single isomer, unassigned) [Compound 132], in assay [1] (setting [2]), the “ER-alpha MCF7 HCS (S inf)” value is −91%. Further, the EC50 with MCF7 cells (Homo sapiens, MCF7, Table 1a) was 9.7 nM.
In the case of `C[C@@H]1Cc2c([nH]c3c(F)cccc23)[C@@H](c2c(F)cc([C@H](O)C3CN(CCCF)C3)cc2F)N1CC(F)(F)CO` (single isomer, unassigned) [Compound 133], the “ER-alpha MCF7 HCS (S inf)” value in assay [1] (setting [2]) is on record as −95.88%. Also, the EC50 with MCF7 cells (Homo sapiens, MCF7, Table 1a) stood at 0.083 nM.
The corresponding values for `C[C@@H]1Cc2c([nH]c3c(F)cccc23)[C@@H](c2c(F)cc([C@@H](O)C3CN(CCCF)C3)cc2F)N1CC(F)(F)CO` (single isomer, unassigned) [Compound 134] are −94.44% and 0.137 nM.
For `C[C@@H]1Cc2c([nH]c3ccccc23)[C@@H](c2c(F)cc([C@@H](O)C3CN(CCCF)C3)cc2F)N1CC(F)(F)CO` (single isomer, unassigned) [Compound 135], in that order: −99.46% and 0.039 nM.
Take `C[C@@H]1Cc2c([nH]c3ccccc23)[C@@H](c2c(F)cc([C@H](O)C3CN(CCCF)C3)cc2F)N1CC(F)(F)CO` (single isomer, unassigned) [Compound 136]: the “ER-alpha MCF7 HCS (S inf)” value in assay [1] (setting [2]) is −99.81%. Further, the EC50 with MCF7 cells (Homo sapiens, MCF7, Table 1a) worked out at 0.066 nM.
For `C[C@@H]1Cc2c([nH]c3ccccc23)[C@@H](c2c(F)cc([C@H](O)C3CN(CCCF)C3)cc2F)N1C[C@@H](F)CO` (single isomer, unassigned) [Compound 137], in that order: −100.96% and 0.074 nM.
For `C[C@@H]1Cc2c([nH]c3ccccc23)[C@@H](c2c(F)cc([C@@H](O)C3CN(CCCF)C3)cc2F)N1C[C@@H](F)CO` (single isomer, unassigned) [Compound 138], in that order: −97.67% and 0.276 nM.
For `C[C@@H]1Cc2c([nH]c3ccccc23)[C@@H](c2c(F)cc([C@H](O)C3CN(CCCF)C3)cc2F)N1C[C@H](F)CO` (single isomer, unassigned) [Compound 140], in that order: −95.81% and 0.989 nM.
For the compound `C[C@@H]1Cc2c([nH]c3cc(F)ccc23)[C@@H](c2c(F)cc([C@H](O)C3CN(CCCF)C3)cc2F)N1CC(F)(F)CO` (single isomer, unassigned) [Compound 142], in assay [1] (setting [2]), the “ER-alpha MCF7 HCS (S inf)” value is reported as −100%. In addition, in the assay with MCF7 cells (Homo sapiens, MCF7, Table 1a), the half-maximal effective concentration (EC50) was 0.065 nM.
Take `C[C@@H]1Cc2c([nH]c3ccccc23)[C@@H](c2c(F)cc([C@H](F)C3CN(CCCF)C3)cc2F)N1C[C@@H](F)CO` (single isomer, unassigned) [Compound 156]: the “ER-alpha MCF7 HCS (S inf)” value in assay [1] (Table 1b) is on record as −102%. For the same compound, in the assay with MCF7 cells (Homo sapiens, MCF7, Table 1b), the EC50 was determined as 0.055 nM.
For the compound `C[C@@H]1Cc2c([nH]c3ccccc23)[C@@H](c2c(F)cc([C@@H](F)C3CN(CCCF)C3)cc2F)N1C[C@@H](F)CO` (single isomer, unassigned) [Compound 157], the “ER-alpha MCF7 HCS (S inf)” value in assay [1] (Table 1b) is given as −100%. Moreover, in the assay on MCF7 cells (Homo sapiens, MCF7, Table 1b), the half-maximal effective concentration (EC50) is 0.078 nM.
For `C[C@@H]1Cc2c([nH]c3ccccc23)[C@@H](c2c(F)cc([C@@H](O)C3CN(CCCF)C3)cc2F)N1CC(F)CF` (stereo in doubt) [Compound 160, (S)-(4-((1R,3R)-2-((R)-2,3-difluoropropyl)-3-methyl-2,3,4,9-tetrahydro-1H-pyrido[3,4-b]indol-1-yl)-3,5-difluorophenyl)(1-(3-fluoropropyl)azetidin-3-yl)methanol], in assay [1] (Table 1b), the “ER-alpha MCF7 HCS (S inf)” value is given as −101%. The EC50 with MCF7 cells (Table 1b) came out at 0.032 nM.
